The target of series [1] is T1, pepsin (Sus scrofa, UniProt P00791).
T1 construct: purchased BDH
Briefly: Enzymatic activity of pepsin (adapted Anson method, denatured haemoglobin substrate, absorbance at 280 nm). The series is classed as biochemical. The note with it: for ΔAX at 280 nm: inhibitor 0.01% (suspension in H2O). The method, then:
The method used to measure the enzymatic activity of pepsin alone or together with the inhibitory substance (pepstatin), consists of an adaptation of the Anson method [Anson et al, J. Gen. Physiol. 1931, 16, 59] which provides for the use of denatured haemoglobin as substrate. The enzymatic activity was determined after precipitation with trichloroacetic acid of the non-hydrolysed substrate. The activity of the enzyme was determined spectrophotometrically from the concentration of soluble peptides released by the proteolytic action.
T=37° C., pH=1,5, Anm, optical path 1 cm, reaction time 10 minutes. At pH=1.5, in which the experiments were conducted, there is a maximum activity of pepsin.
Haemoglobin 2%, pepsin 0,02%, inhibitor 0.01%.
Substrate: 250 mg of human haemoglobin are weighed in a 10 mL flask, it is brought up to volume with distilled water and left under stirring for 10 minutes in a water bath at 37° C. to obtain a solution 2.5%. The solution is passed through a filter paper to eliminate insoluble residues. 8 mL of the filtrate are taken and the volume is brought up to 10 mL with acidic water so as to have a final pH finale of 1.5 and a solution 2% (w/V).
Enzyme: 5 mg of pepsin are weighed in a 5 mL flask and it is brought up to volume with acidic water (pH=1.5).
Enzyme together with inhibitory substance: 5 mg of pepsin are weighed in a 5 mL flask. 0.5 mg/mL of a solution or suspension at pH=1.5 of the inhibitory substance are prepared separately (checking the pH with a pH meter and correcting it, if necessary, with hydrochloric acid 12 M in an amount such not to change the total volume). […]
0.25 mL of substrate (haemoglobin) are pipetted in a suitable vial and almost entirely submerged in a water bath thermostated at 37° C. It is left under magnetic stirring for 10 minutes at 37° C. 50 microlitres of the enzyme solution (pepsin) or of the enzyme together with the inhibitory substance (pepsin+pepstatin A) are then added and the system is kept under incubation for exactly 10 minutes. 0.5 mL of the trichloroacetic acid solution 5% are added after this period of time and then left for another 5 minutes. Exactly 3 mL of distilled water at pH=1.5 are added into the vial using a graduated pipette; the solution is stirred and filtered using a 0.45 μm syringe filter. An absorption spectrum (with absorbance (A) always below 1) with wavelengths comprised between 300 nm and 250 nm is recorded using a spectrophotometer using the absorbance value at 280 nm as reference.
Blank: 0.25 mL of substrate (haemoglobin) are pipetted in a suitable vial and almost entirely submerged in a water bath thermostated at 37° C. It is left under magnetic stirring for 10 minutes. 50 microlitres 0.5 mg/mL of the inhibitory substance solution (without enzyme) are then added and the system is kept under incubation for exactly 10 minutes. 0.5 mL of the trichloroacetic acid solution 5% are added after this period of time and then left for another 5 minutes.
50 microlitres of solution 1 mg/mL of enzyme without inhibitory substance are the introduced. Exactly 3 mL of distilled water at pH=1.5 are added into the vial using a graduated pipette, then the solution is stirred and filtered using a 0.45 μm syringe filter. An absorbance with wavelengths comprised between 300 nm and 250 nm is recorded using a spectrophotometer using the absorbance value at 280 nm as reference.
Each experiment was repeated at least twice. The final absorbance value (A) at 280 nm was the mean of the absorbance values obtained (with an uncertainty on the values always much lower than 10%). A ΔA, with ΔAx=A280sample substanceX−A280blank substance X and ΔAo=A280sample free pepsin−A280blank free pepsin in the event of absence of the inhibitory substance are associated with the pepsin-inhibiting substance. […]

Series [2] is described as follows: physchem. The note with it: Solubility in ethanol (EtOH).

In brackets after ≈: the same amount, converted by molar mass. Where a SMILES comes first, the peptide text is derived from it. [ ]: non-standard residue; d: D form. The star is where a group is joined. Sta = CC(C)C[C@H](N)[C@@H](O)CC(=O)O; Isovaleryl = CC(C)CC(=O)*

T1 sequence (P00791 60-385): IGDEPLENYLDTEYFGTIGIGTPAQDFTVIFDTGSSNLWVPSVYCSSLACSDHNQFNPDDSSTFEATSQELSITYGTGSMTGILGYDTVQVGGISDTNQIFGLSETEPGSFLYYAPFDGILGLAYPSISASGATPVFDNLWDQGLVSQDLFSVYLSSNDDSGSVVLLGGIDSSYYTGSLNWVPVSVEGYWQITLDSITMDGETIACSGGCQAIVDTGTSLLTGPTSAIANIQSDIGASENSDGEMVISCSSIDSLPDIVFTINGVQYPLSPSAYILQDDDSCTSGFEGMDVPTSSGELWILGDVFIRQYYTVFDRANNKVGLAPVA

By solubility is commonly meant how much of the substance goes into solution per volume. With `CC(C)CC(=O)N[C@H](C(=O)N[C@H](C(=O)N[C@@H](CC(C)C)[C@@H](O)CC(=O)N[C@@H](C)C(=O)N[C@@H](CC(C)C)[C@@H](O)CC(=O)O)C(C)C)C(C)C` [PEPSTATIN, Isovaleryl-L-val-L-val-statyl-L-alanyl-statin] (Isovaleryl-VV[Sta]A[Sta]-OH), the “ΔAX at 280 nm” value in series [1] (pepsin 0.02%, haemoglobin 2%, pH 1.5, 37° C., 10 minutes) is on record as 0; in series [1] (pepsin 0.02%, haemoglobin 2%, pH 1.5, 37° C., 10 minutes, listed as Pepstatin) it was 0; in series [1] (pepsin 0.02%, haemoglobin 2%, pH 1.5, 37° C., 10 minutes, listed as pepstatin), 0.004. The “Residual activity with respect to the maximum activity measured” value in series [1] (inhibitor 0.01%, pepsin 0.02%, haemoglobin 2%, pH 1.5, 37° C., 10 minutes) came to 0%. In series [1] (pepstatin 1 μM diluted in H2O after dissolution in EtOH 1 mg/mL, added to haemoglobin 2% before pepsin, pH 1.5, 10 min (FIG. 3)), the “Activity of pepsin in the presence of pepstatin 1 μM” value was “total abatement in the activity”. Moreover, in series [1] (pepstatin 1 μM in haemoglobin 2%, time scale of the experiment t=10 minutes), the “Binding between the enzyme and the inhibitor (kinetics study)” value is “immediate binding”. In series [1] (statement in Conclusions, no picomolar test described), the “Concentrations at which pepsin is inhibited / totally deactivated” value was “picomolar concentrations”. The molecule further returned a solubility in series [2] of 1000 µg/mL (≈ 1460 µM).

Values taken from patent publication US20230181703A1, “COMPOSITION COMPRISING PEPSTATIN AND ALGINIC ACID OR A SALT THEREOF, AND USE THEREOF” (DRUGS MINERALS AND GENERICS ITALIA S.R.L. IN FORMA …, priority 2020, published 2023).
